Measured values reported in patent US12209142B2, “SARS-CoV-2 epitope-targeted peptide immunostimulants” (Institute for Systems Biology, priority 2020, dated 2025).
Values joined by “and” are separate entries in the source; they are usually repeats but may differ in a detail not shown here. Identical values can stand only once. Bridges are numbered along the chain shown (N, C = ends). Where no end group is shown, it is not given here. [ ]: non-standard residue; d: D form. Lys(N3) = [N-]=[N+]=NCCCC[C@H](N)C(=O)O; Pra = C#CC[C@H](N)C(=O)O

Columns and labels:
Type in all cases: cell-based, Klebsiella pneumoniae
[1] = tested on: K. pneumoniae cells (strain BAA 1705); assay: Gentamicin protection assay: phagocytosis and opsonophagocytic killing (OPK) by macrophages; conditions: 1 h
Method: FIGS. 7A and 7B show a gentamicin protection assay that evaluates EPI-driven phagocytosis and opsonophagocytic killing (OPK) of K. pneumoniae cells by murine bone-marrow-derived macrophages. FIG. 7A is a flow diagram depicting the assay used to evaluate EPI-driven opsonophagocytic killing (OPK) of K. pneumoniae cells. Briefly, K. pneumoniae cells (strain BAA 1705) opsonized by EPIs (AR-PCCs) and anti-DNP antibodies were incubated with macrophages for 1 or 24 h. Macrophages were lysed, and the lysate was plated to obtain bacterial colonies that were subsequently counted. FIG. 7B is a plot of colony counts for various samples subjected to the OPK assay. […] All EPIs (AR-PCCs) were used at a 5 μM concentration, measurements were conducted in triplicate, and error bars reflect standard deviations. cy(LLFFA) is SEQ ID NO:11.
It also tested whether DNP-conjugated EPIs could promote the opsonophagocytic killing (OPK) of K. pneumoniae by macrophages. This was tested by using an OPK assay. Briefly, K. pneumoniae cells were treated with EPI and then anti-DNP antibody before being exposed to macrophages for either 6 or 24 hours. During this incubation period, macrophages that recognize K. pneumoniae cells will phagocytose them, and phagocytosed bacteria will remain viable for up to 6 hours, but within 24 hours are rendered inviable by OPK. Thus, macrophages were isolated after 6 and 24 hours of incubation with K. pneumoniae, lysed them, and plated and grew the lysate, which yielded bacterial colonies that reflect the phagocytosis (at 6 hrs) or OPK (at 24 hrs) of bacteria.
Given that cy(LLFFF)-DNP (SEQ ID NO:5) recruits antibodies to K. pneumoniae surfaces, it was expected that K. pneumoniae opsonized in this manner would be more susceptible to phagocytosis by macrophages. AR-PCC-driven phagocytosis and OPK were quantified by a gentamicin protection assay, as depicted in FIG. 7A. For this assay, K. pneumoniae cells (strain BAA 1705) were treated with cy(LLFFF)-DNP (SEQ ID NO:5), opsonized by anti-DNP antibodies, and then incubated with murine bone-marrow-derived macrophages (BMDMs). BMDMs were subsequently exposed to a solution containing gentamicin, to which K. pneumoniae strain BAA 1705 is susceptible, to kill any extracellular bacteria. Phagocytosed bacteria remain viable inside BMDMs for at least 1 h, yet are rendered inviable after 24 h by OPK (FIG. 13). Macrophages harvested at 1 h and 24 h were lysed and plated to generate bacterial colonies, which were enumerated to quantify phagocytosis and OPK.
Opsonophagocytic killing (OPK) assays. Klebsiella pneumoniae BAA1705 was treated with DNP-PCCs followed by incubation with anti-DNP antibody, as described above in the “Cell-Based ELISAs” section. These opsonized bacteria were then used to infect BMDMs at a multiplicity of infection of 50 for 0.5 h at 37° C. Bacteria were then washed by using RPMI 1640 Media and BMDMs were left in cell culture medium containing gentamicin (100 μg/ml). After 1 h and 24 h BMDMs were washed to remove gentamicin and intracellular bacteria were harvested by lysing BMDMs in RPMI media containing 0.2% Triton X 100. Bacterial CFUs were enumerated by plating onto LB agar. Bacterial counts at 1 h indicated the degree of opsonization while those at 24 h served as a measure of microbicidal activity of macrophages. For these measurements, anti-MrkA antibody and K. pneumoniae antiserum were used at dilutions of 5 μg/mL each.

[2] = tested on: K. pneumoniae cells, BAA 1705 and BAA 2146; assay: Whole-cell ELISA of anti-DNP recruitment to bacterial cell surfaces; conditions: AR-PCC plus anti-DNP; cy(LLFFF)-DNP 5 or 10 μM, cy(HNGPT)-DNP 50 and 100 μM
Description: FIG. 12 is a plot of 450 nm absorbances obtained from a cell-based ELISA assay conducted on two strains of K. pneumoniae cells, BAA 1705 (black) and BAA 2146 (grey), that were either untreated or opsonized by EPIs (AR-PCCs) and/or antibodies. […] This establishes EPI-driven opsonization by cy(LLFFF)-DNP (SEQ ID NO:5). […] This indicates opsonization by cy(LLFFF)-DNP (SEQ ID NO:5) is specific and is driven by the ligand cy(LLFFF) (SEQ ID NO:5), rather than the Lys(DNP) moiety.
The protocol for detecting anti-DNP recruitment to bacterial cell surfaces is as follows. […] After washing, bacteria were incubated with HRP conjugated secondary antibody (Bio-Rad) at a dilution of 1:10,000 for 1 h at 37° C. Unbound antibody was washed off by using PBS-BSA and the cells were then developed by using TMB reagent. […] Anti-MrkA antibody was procured from Biorbyt (orb51318) and used at a concentration of 5 μg/mL, and K. pneumoniae antiserum was obtained from abcam (ab20947) and used at a concentration of 5 μg/mL.

[3] = tested on: K. pneumoniae cells (strain BAA 2146); assay: Flow cytometry of AR-PCC-driven opsonization by anti-DNP antibodies; conditions: cy(LLFFF)-DNP 1 or 5 μM, cy(HNGPT) control 50 μM, plus fluorescent anti-DNP

For “cy(LLFFF)-DNP: cy(LLFFF) tagged with a DNP-modified lysine residue; lead AR-PCC ([Pra]LLFFF[Lys(N3)]; bridge 1-7; not fully specified (bridges); printed as cy(LLFFF)-DNP; also: tagged with a DNP-modified lysine residue, position not given here)”, the “phagocytosis at 1 h, AR-PCC only (no anti-DNP)” value ([1]; AR-PCC 5 μM) was “None of these treatments elicited phagocytosis above basal levels”, the “colony counts at 1 h, AR-PCC plus anti-DNP antibody” value ([1]; AR-PCC 5 μM, murine BMDMs) was 89,000 CFU and 85,000 CFU and the “level of phagocytosis lower than that induced by K. pneumoniae antiserum and anti-MrkA treatment” value ([1]; plus anti-DNP) was “about 15%”. The “450 nm absorbance, anti-DNP recruitment to cells” value [2] was “much larger signal” and the “fluorescence of cells (opsonization by anti-DNP)” value [3] was “much higher fluorescence”.
